From PMC6099591, “(2E,5E)-2,5-Bis(3-hydroxy-4-methoxybenzylidene) cyclopentanone Exerts Anti-Melanogenesis and Anti-Wrinkle Activities in B16F10 Melanoma and Hs27 Fibroblast Cells” (Molecules : A Journal of Synthetic Chemistry and Natural …, 2018) come the findings set out here.

Data set [1] has as its target Mushroom tyrosinase (EC 1.14.18.1) (Agaricus bisporus, UniProt C7FF04). Kind of data set: Kinetic analysis of tyrosinase inhibition (Lineweaver-Burk and Dixon plots). The format is biochemical. To be noted: Lineweaver-Burk plot. From the text:
Furthermore, the mechanism responsible for tyrosinase inhibition by BHCP was investigated by enzyme kinetic analysis in the present study (Table 1 and Figure 2). Lineweaver–Burk plots were drawn using the data obtained from the kinetic studies, and the inhibition constant (Ki) was obtained from the Dixon plots. The Lineweaver–Burk double reciprocal plots indicated competitive-type inhibition. […] Moreover, intercepts on the x-axis of Dixon plots are commonly used to determine the types of enzyme inhibition constants (Ki) for an enzyme–inhibitor complex, where the value of the x-axis indicates the value of −Ki.
Figure 2 Lineweaver–Burk (a,c) and Dixon (b,d) plots for tyrosinase enzyme inhibition by BHCP. […]
To determine the kinetic mechanisms, two kinetic methods (Lineweaver–Burk and Dixon plots) were complementarily used. For the Lineweaver–Burk double reciprocal plots (a plot of 1/enzyme velocity (1/V) versus 1/substrate concentration (1/[S])), the inhibition type was determined using various concentrations of L-tyrosine (1, 2, and 4 mM) and L-DOPA (0.5, 1, and 2 mM) as substrates in the presence of different concentrations of BHCP. […]

For data set [2], the system named is B16F10 melanoma cells. Put plainly: Cell viability, EZ-Cytox assay, B16F10. The format is cell-based, murine. To be noted: up to 10 µM, 48 h. The procedure: (§1) Figure 3 Cell viability of BHCP on B16F10 melanoma (a) and Hs27 fibroblast cells (b). Cells were treated with various concentrations (0–10 μM) of BHCP for 24 h and 48 h, respectively, and cell viability was measured by EZ-Cytox assay.
(§2) The viability of cells was assessed using the EZ-Cytox kit assay. In brief, B16F10 cells and Hs27 fibroblasts were seeded into a 96-well plate at a density of 1 × 10^4 cells/well and incubated at 37 °C for 24 h. The cells were fed fresh, serum-free DMEM that contained different concentrations (0, 1, 2, 5, and 10 µM) of BHCP, and incubated for 24 and 48 h. Subsequently, 10 μL of EZ-Cytox solution was loaded into each well and the cells were incubated for 2–4 h. The absorbance measurement of cells in the absence of any treatment was regarded as 100% cell survival. Each treatment was performed in triplicate and each experiment was repeated three times.

For data set [3], the system named is Hs27 fibroblast cells. Kind of data set: Cell viability, EZ-Cytox assay, Hs27. It is filed as cell-based, human. To be noted: up to 10 µM, 48 h. The procedure: as §1, §2
Data set [4] concerns B16F10 melanoma cells. Kind of data set: Melanin content in α-MSH-induced B16F10 cells. It is filed as cell-based, murine. To be noted: 24 h pretreatment then α-MSH (5 µM) 48 h, α-MSH only control 186%. On the procedure:
(§3) Figure 4 Inhibition of melanin contents (a) and cellular tyrosinase activity (b) of BHCP on B16F10 melanoma cells. […] Melanin content of the pellet was evaluated at 405 nm (a); intracellular tyrosinase activity was determined with L-DOPA as the substrate, and the absorbance of L-DOPA chrome was read at 492 nm (b). Data are expressed as mean ± S.E.M of three independent experiments. One-way ANOVA was used to determine the significances of differences: ^# p < 0.05 compared to the control group without α-MSH treatment. ** p < 0.01 and * p < 0.05 compared to the α-MSH-treated control group.
The effect of BHCP on α-MSH-induced melanogenesis in B16F10 cells was based on a previously used method with slight modifications. Briefly, B16F10 cells (5 × 10^4 cells/well) in 6-well plates were allowed to grow to 70–80% confluence. […] After treatment, the cells were washed twice with ice-cold PBS, dissolved in 90 µL 1 M NaOH solution including DMSO (5%) at 60 °C for 1 h, and the absorbance was measured at 405 nm with a microplate spectrophotometer (TECAN, Salzburg, Austria). To measure the amount of melanin in the experiment, the rate of inhibition in the treatment groups were calculated from the absorbance of the known concentrations of synthetic melanin, which were corrected to the total amount of protein that was present in the supernatant of the cell lysates. The absorbance of untreated cells was measured in triplicate.

For data set [5], the system named is cellular tyrosinase in B16F10 melanoma cells. Kind of data set: Cellular tyrosinase activity assay in α-MSH-induced B16F10 cells. It is filed as cell-based, murine. To be noted: 24 h pretreatment then α-MSH (5 µM) 48 h, α-MSH only control 181%. The procedure: as §3
Cellular tyrosinase activity assay was performed by measuring the rate of oxidation of L-DOPA [35]. B16F10 cells at a density of 5 × 10^4/cells were placed in 6-well dishes and incubated overnight. […] The cells were washed with PBS and lysed in a solution containing 100 µL of 50 mM phosphate buffer (pH 6.5), 0.1 mM phenylmethylsulfonylfluoride (PMSF), and 1% Triton X-100. Then, the cells were placed in a deep freezer machine (−80 °C) for 30 min. After defrosting the cells, the cellular extracts were purified by centrifugation at 12,000 rpm for 30 min at 4 °C. A total of 80 µL the supernatant and 20 µL of L-DOPA (2 mg/mL) were added to a 96-well plate, and the absorbance at a wavelength of 492 nm was measured every 10 min during 1 h at 37 °C with an ELISA plate reader (TECAN, Salzburg, Austria).

In data set [6] the test system is tyrosinase. Kind of data set: Western blot, tyrosinase protein level in α-MSH-stimulated B16F10 cells. It is filed as cell-based, murine. To be noted: 1 and 10 µM, 24 h, then α-MSH (5 µM) 48 h; normalized by β-actin. The procedure: (§4) Figure 5 Effects of BHCP on the expression levels of phosphorylation of CREB, MITF, and tyrosinase in α-MSH-stimulated B16F10 melanoma cells. Cells were preincubated with or without 1 and 10 μM BHCP for 24 h and were stimulated with α-MSH (5 μM) for an additional 48 h. Harvested cells were lysed and then examined for the expression levels of p-CREB, CREB, MITF, and tyrosinase by Western blotting (a); The protein levels of tyrosinase (b); MITF (c); and p-CREB (d) were quantitated with CS analyzer software. Tyrosinase, MITF, and p-CREB protein levels were normalized by β-actin. Data are expressed as mean ± S.E.M. of three independent experiments. ^# p < 0.05 versus untreated control; * p < 0.05 versus α-MSH stimulation.
(§5) Lysate samples were boiled for 10 min in gel-loading buffer (125 mM Tris-HCl, 4% sodium dodecyl sulfate (SDS), 10% 2-mercaptoethanol, and 0.2% bromophenol blue; pH 6.8) at a volume ratio of 1:1. The total protein equivalents for each sample were separated by SDS-polyacrylamide gel electrophoresis (PAGE) using acrylamide gels as based on the procedure described by Laemmli and transferred to PVDF membranes at 80 V for 2 h using the wet-transfer system. […] Antibody labeling was detected by enhanced chemiluminescence in accordance with the manufacturer’s instructions. Protein quantitation was performed using the Davinch-Chemi TM. […]
For orientation: A western blot detects proteins with antibodies after separation by electrophoresis.

For data set [7], the system named is MITF. Put plainly: Western blot, MITF protein level in α-MSH-stimulated B16F10 cells. It is filed as cell-based, murine. To be noted: 1 and 10 µM, 24 h, then α-MSH (5 µM) 48 h; normalized by β-actin. On the procedure: as §4, §5
Data set [8] relates to p-CREB. Put plainly: Western blot, phosphorylation of CREB in α-MSH-stimulated B16F10 cells. It is filed as cell-based, murine. To be noted: 1 and 10 µM, 24 h, then α-MSH (5 µM) 48 h. On the procedure: as §4, §5
Data set [9] deals with p-p65 (Ser536). Put plainly: Western blot, nuclear p-p65 (Ser536) in UV-induced Hs27 cells. The format is cell-based, human. To be noted: 1 and 10 µM, 24 h, then UV (50 mJ/cm2) 24 h; normalized to TFIIB. The procedure: (§6) Figure 6 Effects of BHCP on the expression levels of p-p65 (Ser536) in UV-induced Hs27 human fibroblast cells. Cells were preincubated with or without 1 and 10 μM BHCP for 24 h and were stimulated with UV (50 mJ/cm^2) for an additional 24 h. Nuclear protein levels of p-p65 (Ser536) were determined by Western blotting (a); After normalization to TFIIB, relative ratios were quantitated with CS analyzer software (b); Cytosol protein levels of p65 was determined by Western blotting (c); After normalization to β-actin, ratios were quantitated with CS analyzer software (d). Data are expressed as mean ± S.E.M. of three independent experiments. ^# p < 0.05 versus untreated control; * p < 0.05 and ** p < 0.01 versus […].
(§7) The Hs27 cells were washed with ice-cold PBS and harvested. […]
(§8) Lysate samples were boiled for 10 min in gel-loading buffer (125 mM Tris-HCl, 4% sodium dodecyl sulfate (SDS), 10% 2-mercaptoethanol, and 0.2% bromophenol blue; pH 6.8) at a volume ratio of 1:1. […] Antibody labeling was detected by enhanced chemiluminescence in accordance with the manufacturer’s instructions. Protein quantitation was performed using the Davinch-Chemi TM. […]

Data set [10] deals with p65. Kind of data set: Western blot, cytosol p65 in UV-induced Hs27 cells. The format is cell-based, human. To be noted: 1 and 10 µM, 24 h, then UV (50 mJ/cm2) 24 h; normalized to β-actin. On the procedure:
as §6, §7, §8

In data set [11] the test system is MMP-1. Kind of data set: Western blot, MMP-1 expression in UV-induced Hs27 cells. It is filed as cell-based, human. To be noted: 1 and 10 µM, 24 h, then UV (50 mJ/cm2) 24 h. The procedure:
(§9) Figure 7 Effects of BHCP on the expression levels of MMP-1, MMP-9, MMP-12, and MMP-13 in UV-induced Hs27 human fibroblast cells. Cells were preincubated with or without 1 and 10 μM BHCP for 24 h and were stimulated with UV (50 mJ/cm^2) for an additional 24 h. Harvested cells were lysed and then examined for the expression levels of MMP-1, MMP-9, MMP-12, and MMP-13 by Western blotting (a); The protein levels of MMP-1 (b); MMP-9 (c); MMP-12 (d); and MMP-13 (e) were quantitated with CS analyzer software. MMP-1, MMP-9, MMP-12, and MMP-13 protein levels were normalized by β-actin. Data are expressed as mean ± S.E.M. of three independent experiments. ^# p < 0.05 versus untreated control; * p < 0.05 versus UV stimulation.
as §5

The test system of data set [12] is MMP-9. Kind of data set: Western blot, MMP-9 expression in UV-induced Hs27 cells. The format is cell-based, human. To be noted: 1 and 10 µM, 24 h, then UV (50 mJ/cm2) 24 h. On the procedure:
as §9, §5

The subject of data set [13] is MMP-12. Kind of data set: Western blot, MMP-12 expression in UV-induced Hs27 cells. It is filed as cell-based, human. To be noted: 1 and 10 µM, 24 h, then UV (50 mJ/cm2) 24 h. On the procedure:
as §9, §5

Data set [14] deals with MMP-13. Put plainly: Western blot, MMP-13 expression in UV-induced Hs27 cells. The format is cell-based, human. To be noted: 1 and 10 µM, 24 h, then UV (50 mJ/cm2) 24 h. On the procedure:
as §9, §5

Chain of Mushroom tyrosinase (EC 1.14.18.1) (G1K3P4 entry or part of it): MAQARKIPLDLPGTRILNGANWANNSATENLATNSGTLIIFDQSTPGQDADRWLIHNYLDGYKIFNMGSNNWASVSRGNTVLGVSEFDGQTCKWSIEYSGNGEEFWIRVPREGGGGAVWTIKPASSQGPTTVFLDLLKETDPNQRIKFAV
Chain of Mushroom tyrosinase (EC 1.14.18.1) (C7FF04 1-392): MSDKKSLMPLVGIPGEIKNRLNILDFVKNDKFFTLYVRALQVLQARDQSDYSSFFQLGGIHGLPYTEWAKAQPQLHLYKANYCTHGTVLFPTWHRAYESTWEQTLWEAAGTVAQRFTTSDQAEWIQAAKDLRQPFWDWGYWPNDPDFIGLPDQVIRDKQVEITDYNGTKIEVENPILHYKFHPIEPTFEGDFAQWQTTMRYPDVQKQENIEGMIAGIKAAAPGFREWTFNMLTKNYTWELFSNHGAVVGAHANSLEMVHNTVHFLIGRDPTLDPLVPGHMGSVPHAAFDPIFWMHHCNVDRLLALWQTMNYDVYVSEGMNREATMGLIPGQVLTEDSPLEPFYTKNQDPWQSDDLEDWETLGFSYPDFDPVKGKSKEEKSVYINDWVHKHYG

With `COc1ccc(/C=C2\CC/C(=C\c3ccc(OC)c(O)c3)C2=O)cc1O` [BHCP, (2E,5E)-2,5-bis(3-hydroxy-4-methoxybenzylidene)cyclopentanone], the “Inhibition Type (L-DOPA)” value in data set [1] (substrate L-DOPA) is listed as “competitive inhibitor”. Further, the “Inhibition Type (L-Tyrosine)” value in data set [1] (substrate L-tyrosine) is recorded as “competitive inhibitor”. The “Cell viability (survival) of B16F10 cells” value in [2] was “did not reduce the survival”. Also, in data set [3], the “Cell viability (survival) of Hs27 cells” value is reported as “did not reduce the survival”. Also, the results for the Melanin content in data set [4] (1 µM), in data set [4] (5 µM) and in data set [4] (10 µM) were 113%, 106% and 102%, respectively. Also, the Cellular tyrosinase activity in data set [5] (1 µM) came out at 120%; in [5] (5 µM), 116%; in data set [5] (10 µM), 105%. In addition, the Tyrosinase protein level entry in data set [6] was “decreased these protein levels”. The MITF protein level result in data set [7] was “decreased these protein levels”. For the same compound, the “Phosphorylation of CREB” value in data set [8] is “significantly suppressed”. In addition, the “Nucleus p-p65 (Ser536) protein level” value in data set [9] was “decreased”. Moreover, the “Total p65 in the cytoplasm” value in data set [10] was “restored”. Also, the MMP-1 expression result in data set [11] is on record as “decreased expression in a dose-dependent manner”. Also, the MMP-9 expression result in data set [12] was “decreased expression in a dose-dependent manner”. Moreover, the MMP-12 expression result in data set [13] is “decreased expression in a dose-dependent manner”. In data set [14], the MMP-13 expression entry is reported as “decreased expression in a dose-dependent manner”.
On to `O=c1cc(CO)occ1O` [Kojic acid, reference compound], for which the Cellular tyrosinase activity in data set [5] is listed as 131%.
